Data taken from paper PMC6553477 (Journal of pharmaceutical sciences, 2018).
Values joined by “and” are separate entries in the source; they are usually repeats but may differ in a detail not shown here. Equal entries are not always repeated. Where two headings read alike, the source gives them in different places. Marks after values point to notes of the source that are not given here.

Assays:
[1] = in vivo
[2] = Mechanism-based pharmacokinetic; assay type: in vivo, Macaca nemestrina; details: MBPK model
[3] = for concentration at 192 h: concentration in LNMCs at 192 h after injection
HIV [4] = details: read-out: in vitro effective concentration that produces 90% of the maximal effect (EC90); reported in vitro; cited from earlier work
[5] = PBMC intracellular drug concentrations after single subcutaneous injection; details: for fold higher AUCPBMC, DcNP versus free drug: ATV-RTV-TFV DcNP compared with free form; for fold higher AUCPBMC, DcNP versus free drug / AUC: macaques; for AUC: monkey, sc, AUCPBMC, ATV-RTV-TFV DcNP, single subcutaneous dose, geometric mean (95% CI)
[6] = for MBRT / CL/F: ATV-RTV-TFV DcNP; for MBRT / half-life: plasma; for half-life: monkey, in vivo
[7] = Drug association efficiency to DcNP by equilibrium dialysis; assay type: physicochemical; details: ATV-RTV-TFV DcNP, DSPC-DSPE-mPEG2000 (9:1)
[8] = in vivo, sc; for time concentrations were sustained in plasma: macaque (Macaca nemestrina)
HIV-1 protease = details: reported; cited from earlier work
[9] = in vivo, sc, cited from earlier work
[10] = monkey, in vivo, sc; cited from earlier work
[11] = cited from earlier work; for LNMC concentration 24 h / LNMC concentration 192 h: in vivo, sc
in vivo = details: Macaca nemestrina (macaque), sc, LNMC/plasma ratio 192 h
HIV [12] = details: read-out: in vivo EC50; nonhuman primates; cited from earlier work
[13] = macaque (Macaca nemestrina), sc
[14] = ATV-RTV-TFV DcNP versus TLC-ART 101
[15] = ATV-RTV-TFV DcNP compared with free form, macaques, 24 h
[16] = ATV-RTV-TFV DcNP, subcutaneous, macaques, 24 h
[17] = ATV-RTV-TFV DcNP compared with free form, macaques
[18] = single subcutaneous dose, macaques, geometric mean (95% CI)
[19] = sc, Terminal t1/2, ATV-RTV-TFV DcNP, single subcutaneous dose, macaques, geometric mean (95% CI)
[20] = TLC-ART 101, subcutaneous, macaques, 24 h
[21] = TLC-ART 101, subcutaneous, macaques, 192 h

Row | SMILES | time drug concentration in PBMCs was sustained [1, 13] | K07, rate of elimination ([2]; Atazanavir-DcNP) | V5_DcNP, central compartmental apparent volume for DcNP ([2]; Atazanavir-DcNP) | V7_Free, central compartmental apparent volume for free drug ([2]; Atazanavir-DcNP) | k21, rate of DcNP absorption into the first delayed compartment ([2]; Atazanavir-DcNP) | k31, rate of DcNP absorption into the second delayed compartment ([2]; Atazanavir-DcNP) | k41, rate of DcNP absorption into the third delayed compartment ([2]; Atazanavir-DcNP) | k75, rate of degradation of DcNP into free drug between central compartments ([2]; Atazanavir-DcNP) | tlag1, delayed constant of delayed compartment 1 ([2]; Atazanavir-DcNP) | tlag2, delayed constant of delayed compartment 2 ([2]; Atazanavir-DcNP) | tlag3, delayed constant of delayed compartment 3 ([2]; Atazanavir-DcNP) | LNMC concentration 24 h [3, 16] | fold higher AUCPBMC, DcNP versus free drug [5] | AUC ([5]; PBMC (intracellular)) | fold higher plasma AUC, DcNP versus free drug [6, 17] | MBRT [6, 18] | CL/F [6, 18] | half-life [6, 19] | % Association to DcNP [7] | time concentrations were sustained in plasma [8] | further results
1 | COC(=O)N[C@H](C(=O)N[C@@H](Cc1ccccc1)[C@@H](O)CN(Cc1ccc(-c2ccccn2)cc1)NC(=O)[C@@H](NC(=O)OC)C(C)(C)C)C(C)(C)C [ATV, atazanavir] | up to 336 h | 0.29 (-) 1/h | 1259^a (569-1680) L/kg | 113 (97-133) L/kg | 0.15 (0.1-0.3) 1/h | 0.05 (-) 1/h | 0.7 (-) 1/h | 0.04^a (0.01-0.06) 1/h | 0.25 (-) h | 16 (9-25) h | 440 (336-520) h | 0.10 (0.04-0.24) μM | 33 fold | 435 µM·h | 5 fold | 650 (370-1230) h | 11^a (8-13) L/[h·kg] | 19.5 days | 99 ± 8.2% and 99 ± 8% | up to 14 days | fold higher V5_DcNP for ATV than LPV [2, 14]: 180 fold; fold lower k75 for ATV than LPV [2, 14]: 18 fold; fold higher intracellular LNMC concentration at 24 h, DcNP versus free drug [3, 15]: 3 fold; fold lower LNMC-to-plasma ratio at 24 h, DcNP versus free drug [3, 15]: 4 fold; fold higher intracellular LNMC concentration at 192 h, DcNP versus free drug ([3]; ATV-RTV-TFV DcNP compared with free form, macaques, 192 h): 3 fold; intracellular LNMC concentration at 192 h ([3]; ATV-RTV-TFV DcNP, macaques, 192 h): 0.09 mμM; LNMC/PBMC ratio 192 h ([3]; ATV-RTV-TFV DcNP, subcutaneous, macaques, 192 h, n=2): 2.4^b; intracellular LNMC concentration at 192 h ([3]; free drug, macaques, 192 h): 0.03 mμM; concentration at 24 h ([3]; macaque (Macaca nemestrina), lymph node mononuclear cells (LNMC), sc, concentration in LNMCs at 24 h after injection, ATV-RTV-TFV DcNP, subcutaneous, primates, 24 h): 100 nM; concentration at 192 h ([3]; macaque (Macaca nemestrina), lymph node mononuclear cells (LNMC), sc, ATV-RTV-TFV DcNP, subcutaneous, primates, 192 h): 90 nM; EC90 (HIV [4]): 13 nM; fold higher PBMC exposure (AUCPBMC) of ATV than LPV ([5]; ATV-RTV-TFV DcNP versus TLC-ART 101, macaques): 5.5 fold; fold longer MBRT, DcNP versus free drug [6, 17]: 116 fold; fold lower CL/F, DcNP versus free drug [6, 17]: 4 fold; fold higher CL/F, free ATV compared with free LPV ([6]; free drugs, macaques): 9 fold; fold lower AUC, free ATV compared with free LPV ([6]; free drugs, macaques): 8 fold; half-life ([6]; terminal half-life, DcNP ATV, macaques (Table 2)): ~20 days; fold higher antiretroviral activity compared with several other commercialized protease inhibitors (HIV-1 protease): 2- to 20 fold
2 | Cc1cccc(C)c1OCC(=O)N[C@@H](Cc1ccccc1)[C@@H](O)C[C@H](Cc1ccccc1)NC(=O)[C@H](C(C)C)N1CCCNC1=O [LPV, lopinavir] | – | – | – | – | – | – | – | – | – | – | – | – | – | – | – | – | – | – | – | – | AUC (plasma, extrapolated to infinity) [9]: 4.8 (4.2-4.6)^c h·μM; CL/F ([9]; monkey): 5 L/[h·kg]; Terminal t1/2 ([9]; monkey): 8.7 (5.3-10.4)^c h; AUCPBMC [10]: 22 (10-33)^c h·μM
3 | CC(C)c1nc(CN(C)C(=O)N[C@H](C(=O)N[C@@H](Cc2ccccc2)C[C@H](O)[C@H](Cc2ccccc2)NC(=O)OCc2cncs2)C(C)C)cs1 [RTV, ritonavir] | up to 336 h | 0.08 (0.03-0.12) 1/h | 67 (22-94) L/kg | 79 (56-122) L/kg | 0.40 (0.35-0.46) 1/h | 0.05 (-) 1/h | 0.5 (-) 1/h | 0.19 (0.06-0.26) 1/h | 0.3 (-) h | 41 (35-46) h | 186 (169-199) h | 0.40^a (0.06-3.00) μM | – | 85 µM·h | – | 110 (46-266) h | 4 L/[h·kg] | 3.04 days | 92 ± 7.1% and 92 ± 7% | up to 14 days | last PBMC concentration timepoint detected ([1]; macaque (Macaca nemestrina)): 48 h; LNMC concentration ([3]; RTV in ATV-RTV-TFV DcNP, macaques, unit as printed in text (Table 4: 24 h)): 0.4 mM; AUC ([5]; PBMC, PBMC intracellular): 79 µM·h; LNMC concentration 24 h [11]: 6.3^a (4.4-8.5) μM; LNMC concentration 192 h [11]: 1.00 (0.06-2.00) μM; Kp at 192 h (in vivo): 23
4 | C[C@H](Cn1cnc2c(N)ncnc21)OCP(=O)(O)O [TFV, 9-(2-Phosphonyl-methoxypropyly)adenine] | up to 192 h | 0.4 (0.08-2) 1/h | 0.7 (0.5-0.9) L/kg | 1.1 (0.8-1.3) L/kg | 0.05 (-) 1/h | 0.1 (-) 1/h | 0.15 (-) 1/h | 0.026 (0.009-0.03) 1/h | 1 h | 23 (-) h | 106 (76-132) h | – | 5 fold | – | 35 fold | 128 (65-254) h | 0.004 (0.002-0.015) L/[h·kg] | 2.75 days | 10 ± 0.8% and 10 ± 1% | up to 14 days | AUCPBMC ([1]; monkey, sc): 1134 (588-1554) h·μM; k76, rate of absorption of free drug ([2]; Atazanavir-DcNP): 1.7 (0.6-2.5) 1/h; k78, rate from periphery to central free compartment ([2]; Atazanavir-DcNP): 0.06 (-) 1/h; k87, rate from central free compartment to periphery ([2]; Atazanavir-DcNP): 0.02 (-) 1/h; LNMC/PBMC ratio 24 h ([3]; free drug combination, subcutaneous, macaques, 24 h): 1.8^d; concentration at 192 h ([3]; macaque (Macaca nemestrina), in vivo, sc, ATV-RTV-TFV DcNP, subcutaneous, primates, 192 h): 130 nM; EC50 (HIV [12]): 49 nM; LNMC/PBMC ratio 24 h [11, 20]: 0.93 (0.39-2.3); LNMC/plasma ratio 24 h [11, 20]: 3 (1.5-5.3); LNMC/PBMC ratio 192 h [11, 21]: 4.4 (0.45-340.0); LNMC/plasma ratio 192 h [11, 21]: 6.8 (1.4-75); LNMC concentration 24 h [11]: 25 (14-47) μM; LNMC concentration 192 h [11]: 19 (3.6-280) μM; fold longer MBRT, DcNP versus free drug [6, 17]: 41 fold; fold longer apparent t1/2, DcNP versus free drug [6, 17]: 7 fold; fold lower CL/F, DcNP versus free drug [6, 17]: 23 fold; AUC (plasma, extrapolated to infinity) ([8]; monkey): 3057 (1029-9078) h·μM
